Data as given in PubChem BioAssay AID264 (DTP/NCI, 2004).
“And” between values parts separate entries of the source, which are not always exact repeats. Identical values can stand only once. Results filed as inconclusive are left out.

Test system: nude mice, LX-1 lung xenograft intrarenal, tumor weight T/C
Assay: NCI In Vivo Anticancer Drug Screen. Data for tumor model Human Lung LX-1 Xenograft (intrarenal inoculation) in NU/NU Swiss (nude) mice
Settings: endpoint: mean tumor weight change, higher = larger tumour
Method in brief: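 Compound-treated mice carrying transplanted tumors were compared with vehicle-treated controls. Tumor size was the measured end point, and the value is the treated-group measurement divided by the control-group measurement (T/C).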

[1] = dose: 2.0 mg/kg/injection, schedule: Q01DX010 (sc), vehicle: saline
[2] = dose: 100.0 mg/kg/injection, schedule: Q04DX003 (sc), vehicle: saline
[3] = dose: 200.0 mg/kg/injection, schedule: Q04DX003 (sc), vehicle: saline
[4] = dose: 400.0 mg/kg/injection, schedule: Q04DX003 (sc), vehicle: saline
[5] = dose: 150.0 mg/kg/injection, schedule: Q04DX003 (sc), vehicle: saline with Tween-80
[6] = dose: 300.0 mg/kg/injection, schedule: Q04DX003 (sc), vehicle: saline with Tween-80
[7] = dose: 1200.0 mg/kg/injection, schedule: Q04DX003 (sc), vehicle: saline with Tween-80
[8] = dose: 600.0 mg/kg/injection, schedule: Q04DX003 (sc), vehicle: saline
[9] = dose: 600.0 mg/kg/injection, schedule: Q04DX003 (sc), vehicle: saline with Tween-80
[10] = dose: 400.0 mg/kg/injection, schedule: Q04DX003 (sc), vehicle: saline with Tween-80
[11] = dose: 800.0 mg/kg/injection, schedule: Q04DX003 (sc), vehicle: saline with Tween-80
[12] = dose: 100.0 mg/kg/injection, schedule: Q01DX010 (sc), vehicle: saline
[13] = dose: 200.0 mg/kg/injection, schedule: Q01DX010 (sc), vehicle: saline
[14] = dose: 12.5 mg/kg/injection, schedule: Q01DX010 (sc), vehicle: saline with Tween-80
[15] = dose: 25.0 mg/kg/injection, schedule: Q01DX010 (sc), vehicle: saline with Tween-80

## CCCCCCCC(=O)OCC(=O)[C@]1(O)Cc2c(O)c3c(c(O)c2[C@@H](OC2CC(N)C(O)C(C)O2)C1)C(=O)c1c(OC)cccc1C3=O (stereo not given in full)
[1]
  T/C: 104 % of control
dose: 4.0 mg/kg/injection, schedule: Q01DX010 (sc), vehicle: saline
  T/C: 173 % of control

## Nc1nc(=S)c2ncn(C3CC(O)C(CO)O3)c2[nH]1 (stereo not given)
dose: 0.31 mg/kg/injection, schedule: Q01DX010 (sc), vehicle: saline with Tween-80
  T/C: 108 % of control
dose: 0.63 mg/kg/injection, schedule: Q01DX010 (sc), vehicle: saline with Tween-80
  T/C: 66 % of control
dose: 1.25 mg/kg/injection, schedule: Q01DX010 (sc), vehicle: saline with Tween-80
  T/C: 85 % of control
dose: 2.5 mg/kg/injection, schedule: Q01DX010 (sc), vehicle: saline with Tween-80
  T/C: 83 % of control

## O=[N+]([O-])O.[Ga]
[2]
  T/C: 92 % of control
[3]
  T/C: 86 % of control
[4]
  T/C: 86 % of control
dose: 800.0 mg/kg/injection, schedule: Q04DX003 (sc), vehicle: saline
  T/C: 83 % of control

## CC1=C(/C=C/C(C)=C/C=C/C(C)=C/C=O)C(C)(C)CCC1
dose: 75.0 mg/kg/injection, schedule: Q04DX003 (sc), vehicle: saline with Tween-80
  T/C: 94 % of control
[5]
  T/C: 68 % of control
[6]
  T/C: 56 % of control and 74 % of control
[7]
  T/C: 57 % of control

## NC(=O)c1ncn(C2OC(CO)C(O)C2O)n1 (stereo not given)
dose: 300.0 mg/kg/injection, schedule: Q04DX003 (sc), vehicle: saline
  T/C: 85 % of control
[8]
  T/C: 95 % of control
dose: 1200.0 mg/kg/injection, schedule: Q04DX003 (sc), vehicle: saline
  T/C: 42 % of control

## CCCC(=O)OCc1cc(=O)n(C)c2c3c4c(cc12)c(C)cc(=O)n4CO3
dose: 25.0 mg/kg/injection, schedule: Q01DX010 (sc), vehicle: Klucel (hydroxypropylcellulose) (HPC)
  T/C: 89 % of control
dose: 50.0 mg/kg/injection, schedule: Q01DX010 (sc), vehicle: Klucel (hydroxypropylcellulose) (HPC)
  T/C: 70 % of control
dose: 100.0 mg/kg/injection, schedule: Q01DX010 (sc), vehicle: Klucel (hydroxypropylcellulose) (HPC)
  T/C: 48 % of control
dose: 200.0 mg/kg/injection, schedule: Q01DX010 (sc), vehicle: Klucel (hydroxypropylcellulose) (HPC)
  T/C: 63 % of control

## c1csc(C[N+]23CN4CN(CN(C4)C2)C3)c1
[2]
  T/C: 112 % of control
[3]
  T/C: 100 % of control
[4]
  T/C: 92 % of control

## CCn1cnc2c(=S)nc[nH]c21
dose: 150.0 mg/kg/injection, schedule: Q04DX003 (sc), vehicle: saline
  T/C: 159 % of control
[8]
  T/C: 224 % of control

## Nc1n[n+](-c2ccc(Cl)cc2)no1
dose: 25.0 mg/kg/injection, schedule: Q04DX003 (sc), vehicle: water
  T/C: 102 % of control
dose: 100.0 mg/kg/injection, schedule: Q04DX003 (sc), vehicle: water
  T/C: 95 % of control

## Brc1ccc(C[N+]23CN4CN(CN(C4)C2)C3)cc1
[5]
  T/C: 91 % of control
[6]
  T/C: 101 % of control
[9]
  T/C: 76 % of control

## CC(=O)Oc1ccc[nH]c1=O
[10]
  T/C: 87 % of control
[11]
  T/C: 91 % of control

## CC1(C)OC(=O)N(CO)C1=O
dose: 25.0 mg/kg/injection, schedule: Q01DX010 (sc), vehicle: saline
  T/C: 51 % of control
[12]
  T/C: 116 % of control
[13]
  T/C: 110 % of control

## CCOC(OCC)C(=O)OCC(=O)[C@]1(O)Cc2c(O)c3c(c(O)c2[C@@H](OC2CC(N)C(O)C(C)O2)C1)C(=O)c1c(OC)cccc1C3=O (stereo not given in full)
dose: 2.0 mg/kg/injection, schedule: Q01DX010 (sc), vehicle: water
  T/C: 68 % of control
dose: 4.0 mg/kg/injection, schedule: Q01DX010 (sc), vehicle: water
  T/C: 27 % of control

## Nc1nc(-c2cccc3ccccc23)cc2ccccc12
dose: 100.0 mg/kg/injection, schedule: Q04DX003 (sc), vehicle: saline with Tween-80
  T/C: 107 % of control
dose: 200.0 mg/kg/injection, schedule: Q04DX003 (sc), vehicle: saline with Tween-80
  T/C: 91 % of control
[10]
  T/C: 94 % of control
[11]
  T/C: 53 % of control

## COc1ccc2nc3cc(Cl)ccc3c(NCCNCCNCCNc3c4ccc(Cl)cc4nc4ccc(OC)cc34)c2c1
[14]
  T/C: 81 % of control
dose: 50.0 mg/kg/injection, schedule: Q01DX010 (sc), vehicle: saline with Tween-80
  T/C: 106 % of control
dose: 200.0 mg/kg/injection, schedule: Q01DX010 (sc), vehicle: saline with Tween-80
  T/C: 70 % of control
dose: 400.0 mg/kg/injection, schedule: Q01DX010 (sc), vehicle: saline with Tween-80
  T/C: 46 % of control

## C1OC1CN1CCN(CC2CO2)CC1 (stereo not given)
dose: 16.0 mg/kg/injection, schedule: Q01DX010 (sc), vehicle: saline
  T/C: 27 % of control

## COc1cccc2c1C(=N)c1c(O)c3c(c(O)c1C2=O)C[C@@](O)(C(C)=O)C[C@@H]3OC1CC(N)C(O)C(C)O1 (stereo not given in full)
dose: 24.0 mg/kg/injection, schedule: Q04DX003 (sc), vehicle: water
  T/C: 46 % of control
dose: 48.0 mg/kg/injection, schedule: Q04DX003 (sc), vehicle: water
  T/C: 10 % of control
dose: 96.0 mg/kg/injection, schedule: Q04DX003 (sc), vehicle: water
  T/C: 23 % of control

## Nc1ncnc2c1nnn2C1OC(CO)C(O)C1O (stereo not given)
dose: 18.75 mg/kg/injection, schedule: Q04DX003 (sc), vehicle: Klucel (hydroxypropylcellulose) (HPC)
  T/C: 102 % of control
dose: 37.5 mg/kg/injection, schedule: Q04DX003 (sc), vehicle: Klucel (hydroxypropylcellulose) (HPC)
  T/C: 96 % of control
dose: 75.0 mg/kg/injection, schedule: Q04DX003 (sc), vehicle: Klucel (hydroxypropylcellulose) (HPC)
  T/C: 103 % of control
dose: 150.0 mg/kg/injection, schedule: Q04DX003 (sc), vehicle: Klucel (hydroxypropylcellulose) (HPC)
  T/C: 80 % of control

## C=CCOCC1CO1 (stereo not given)
[12]
  T/C: 87 % of control
[13]
  T/C: 104 % of control
dose: 400.0 mg/kg/injection, schedule: Q01DX010 (sc), vehicle: saline
  T/C: 69 % of control

## O=C1NCC(Br)C(=O)N1 (stereo not given)
[5]
  T/C: 99 % of control
[6]
  T/C: 90 % of control

## CN(N=O)C(N)=O
[14]
  T/C: -64 % of control
dose: 12.5 mg/kg/injection, schedule: Q04DX003 (sc), vehicle: saline
  T/C: 19 % of control
[15]
  T/C: -69 % of control
dose: 25.0 mg/kg/injection, schedule: Q04DX003 (sc), vehicle: saline
  T/C: 7 % of control
dose: 50.0 mg/kg/injection, schedule: Q04DX003 (sc), vehicle: saline
  T/C: 12 % of control
[2]
  T/C: 1 % of control

## OCC1OC(n2cnc3cc(Cl)c(Cl)cc32)C(O)C1O (stereo not given)
[6]
  T/C: 112 % of control
[9]
  T/C: 86 % of control
[7]
  T/C: 94 % of control
dose: 2400.0 mg/kg/injection, schedule: Q04DX003 (sc), vehicle: saline with Tween-80
  T/C: 72 % of control

## CCN(CC)CCCC(C)Nc1c2ccc(Cl)cc2nc2ccc(OC)cc12 (stereo not given)
[14]
  T/C: 98 % of control
[15]
  T/C: 102 % of control and 108 % of control
[5]
  T/C: 75 % of control
[6]
  T/C: 41 % of control

## CC[C@]1(O)C[C@H]2CN(CCc3c([nH]c4ccccc34)[C@@](C(=O)OC)(c3cc4c(cc3OC)N(C)[C@H]3[C@@](O)(C(=O)OC)[C@H](OC(C)=O)[C@]5(CC)C=CCN6CC[C@]43[C@@H]65)C2)C1
dose: 0.25 mg/kg/injection, schedule: Q01DX010 (sc), vehicle: saline
  T/C: 52 % of control
dose: 1.0 mg/kg/injection, schedule: Q01DX010 (sc), vehicle: saline
  T/C: 68 % of control
[1]
  T/C: 28 % of control

## Cc1ccc(S(=O)(=O)OCOS(=O)(=O)c2ccc(C)cc2)cc1
dose: 300.0 mg/kg/injection, schedule: Q04DX003 (sc), vehicle: Klucel (hydroxypropylcellulose) (HPC)
  T/C: 79 % of control
dose: 600.0 mg/kg/injection, schedule: Q04DX003 (sc), vehicle: Klucel (hydroxypropylcellulose) (HPC)
  T/C: 95 % of control
dose: 1200.0 mg/kg/injection, schedule: Q04DX003 (sc), vehicle: Klucel (hydroxypropylcellulose) (HPC)
  T/C: 74 % of control
dose: 2400.0 mg/kg/injection, schedule: Q04DX003 (sc), vehicle: Klucel (hydroxypropylcellulose) (HPC)
  T/C: 100 % of control

## O=C(O)CC(NC(=O)CP(=O)(O)O)C(=O)O.[NH-]C1CCCCC1[NH-].[Pt+2] (stereo not given)
dose: 6.25 mg/kg/injection, schedule: Q04DX003 (sc), vehicle: dextrose
  T/C: 86 % of control
dose: 12.5 mg/kg/injection, schedule: Q04DX003 (sc), vehicle: dextrose
  T/C: 72 % of control
dose: 25.0 mg/kg/injection, schedule: Q04DX003 (sc), vehicle: dextrose
  T/C: 54 % of control

## CN(C)C=O
dose: 800.0 mg/kg/injection, schedule: Q01DX010 (sc), vehicle: saline
  T/C: 91 % of control
dose: 1600.0 mg/kg/injection, schedule: Q01DX010 (sc), vehicle: saline
  T/C: 74 % of control
